Tested on: C. albicans
Test: Cell viability by membrane integrity, propidium iodide (PI) flow cytometry
Type: cell-based
Method: • Figure 1. Checkerboard assay showing the potentiation of the antifungal caspofungin by the compound MDN-0018. In this assay, dose response curves of the compound MDN-0018 (8 to 0.015 µg/mL) are performed from left to right and dose response curves of caspofungin (0.24 to 0.018 µg/mL) are performed from top to bottom. Other known antifungal compounds (echinocandins, azoles and polyenes) were tested, obtaining a similar checkboard. […] Determination of the potentiation of caspofungin activity by the compound MDN-0018 against A. fumigatus. Study of the optimum concentration of the compounds MDN-0018 and caspofungin where maximum enhancement of caspofungin is reached is shown in Figure 2.1. In addition, the graphic representation of curves, in duplicate, of the caspofungin potentiated by the compound MDN-0018 is shown in Figure 2.1. Each curve represents a curve of caspofungin from 0.24 to 0.018 µg/mL ([…]) with set concentrations of the MDN-0018 compound from 8 to 0.015 µg/mL (8.86 to 0.017 µM). • Figure 3. Flow cytometry experiments to determine cellular viability by changes in membrane permeability using propidium iodide (PI) as probe. […]
Cell viability was determined by changes in membrane permeability, live cells with intact membranes are distinguished by their ability to exclude dyes that easily penetrate dead or damaged cells. […]

CC[C@H](C)C[C@H](C)CCCCCCCCC(=O)N[C@H]1C[C@@H](O)[C@@H](NCCN)NC(=O)[C@@H]2[C@@H](O)CCN2C(=O)[C@H]([C@H](O)CCN)NC(=O)[C@H]([C@H](O)[C@@H](O)c2ccc(O)cc2)NC(=O)[C@@H]2C[C@@H](O)CN2C(=O)[C@H]([C@@H](C)O)NC1=O [caspofungin]
cellular viability by changes in membrane permeability (PI), flow cytometry profile (1 µg/mL of caspofungin): damaged population | cellular viability by changes in membrane permeability (PI), flow cytometry profile (sublethal dose of caspofungin (0.015 µg/mL)): same profile as the non treated cells

Reference: patent EP2792683A1, “Compounds potentiating the activity of antifungal drugs” (Fundacion MEDINA. Centro de Excelencia en Investigacion de …, priority 2013, dated 2014)
